Earlier results on 1 molecule are cited in patent US20230329971A1, “MEDICINAL PRODUCT COMPRISING A FLEXIBLE PLASTIC BAG AND AN AQUEOUS, READY-TO-USE SOLUTION OF MIDAZOLAM” (B. Braun Melsungen AG, priority 2020, published 2023).

The conditions of this data set: in aqueous 5% dextrose solution or aqueous 0.9% sodium chloride solution.

On to `Cc1ncc2n1-c1ccc(Cl)cc1C(c1ccccc1F)=NC2.Cl` [midazolam hydrochloride, 8-chloro-6-(2-fluorophenyl)-1-methyl-4H-imidazo [1,5-a] [1, 4] benzodiazepine hydrochloride], for which the stable over was 30 days.
